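Five concentrations, 48 hours, 96-well plates. TGI is the concentration that stops growth completely.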
Key:
Assay in all cases: NCI tumour cell line growth inhibition, 48 h
[1] = tested on: NCI-H226 lung
[2] = tested on: DU-145 prostate
[3] = tested on: U251 CNS
[4] = tested on: SNB-19 CNS
[5] = tested on: MCF7 breast
[6] = tested on: K-562 leukemia
[7] = tested on: SF-295 CNS
[8] = tested on: A498 renal
[9] = tested on: MDA-MB-435
[10] = tested on: NCI-H460 lung
[11] = tested on: HCT-15 colon
[12] = tested on: HL-60(TB) leukemia
[13] = tested on: M14 melanoma
[14] = tested on: SK-OV-3 ovarian
[15] = tested on: RXF 393 renal
[16] = tested on: COLO 205 colon
[17] = tested on: LOX IMVI melanoma
[18] = tested on: PC-3 prostate
[19] = tested on: SNB-75 CNS
[20] = tested on: KM12 colon
[21] = tested on: HS 578T breast
[22] = tested on: CCRF-CEM leukemia
[23] = tested on: MDA-N
[24] = tested on: ACHN renal
[25] = tested on: SK-MEL-2 melanoma
[26] = tested on: SF-539 CNS
[27] = tested on: OVCAR-3 ovarian
[28] = tested on: RPMI-8226 leukemia
[29] = tested on: UACC-62 melanoma
[30] = tested on: HT29 colon
[31] = tested on: MDA-MB-231 breast
[32] = tested on: HOP-62 NSCLC
[33] = tested on: EKVX NSCLC
[34] = tested on: OVCAR-8 ovarian
[35] = tested on: A549 NSCLC
[36] = tested on: SR leukemia
[37] = tested on: IGROV1 ovarian
[38] = tested on: NCI/ADR-RES ovarian
[39] = tested on: CAKI-1 renal
[40] = tested on: SN12C renal
[41] = tested on: SK-MEL-28 melanoma
[42] = tested on: SF-268 CNS
[43] = tested on: MALME-3M melanoma
[44] = tested on: OVCAR-5 ovarian
[45] = tested on: BT-549 breast
[46] = tested on: MOLT-4 leukemia
[47] = tested on: SW-620 colon
[48] = tested on: HOP-92 NSCLC
[49] = tested on: HCT-116 colon
[50] = tested on: SK-MEL-5 melanoma
[51] = tested on: NCI-H522 lung
[52] = tested on: UO-31 renal
[53] = tested on: T-47D breast
[54] = tested on: TK-10 renal

SMILES: CCCCCCOP(=O)(OCCCCCC)C(NC(=O)OCC)(C(F)(F)F)C(F)(F)F
- TGI [1]: 66.2 µM
- TGI [2]: > 100 µM
- TGI [3]: > 100 µM
- TGI [4]: > 100 µM
- TGI [5]: > 100 µM
- TGI [6]: > 100 µM
- TGI [7]: > 100 µM
- TGI [8]: > 100 µM
- TGI [9]: > 100 µM
- TGI [10]: > 100 µM
- TGI [11]: > 100 µM
- TGI [12]: > 100 µM
- TGI [13]: > 100 µM
- TGI [14]: > 100 µM
- TGI [15]: 76.9 µM
- TGI [16]: 32.3 µM
- TGI [17]: 56.1 µM
- TGI [18]: > 100 µM
- TGI [19]: > 100 µM
- TGI [20]: > 100 µM
- TGI [21]: > 100 µM
- TGI [22]: > 100 µM
- TGI [23]: > 100 µM
- TGI [24]: > 100 µM
- TGI [25]: 72.2 µM
- TGI [26]: > 100 µM
- TGI [27]: > 100 µM
- TGI [28]: > 100 µM
- TGI [29]: > 100 µM
- TGI [30]: > 100 µM
- TGI [31]: 56.6 µM
- TGI [32]: > 100 µM
- TGI [33]: > 100 µM
- TGI [34]: > 100 µM
- TGI [35]: > 100 µM
- TGI [36]: > 100 µM
- TGI [37]: > 100 µM
- TGI [38]: > 100 µM
- TGI [39]: > 100 µM
- TGI [40]: > 100 µM
- TGI [41]: > 100 µM
- TGI [42]: > 100 µM
- TGI [43]: > 100 µM
- TGI [44]: > 100 µM
- TGI [45]: 50.1 µM
- TGI [46]: > 100 µM
- TGI [47]: > 100 µM
- TGI [48]: 93.4 µM
- TGI [49]: 90.2 µM
- TGI [50]: 44.1 µM
- TGI [51]: 52.6 µM
- TGI [52]: 72.2 µM
- TGI [53]: > 100 µM
- TGI [54]: > 100 µM

From PubChem BioAssay (NCI)
